Measured values from patent US11072612B2, “NLRP3 modulators” (INNATE TUMOR IMMUNITY, INC., priority 2016, dated 2021).

Tests used:
Format in all cases: cell-based
hNLRP3 = target: T1, hNLRP3 (Homo sapiens, UniProt Q96P20); assay: hNLRP3 agonist assay: IL-1β production in PMA-differentiated THP-1 cells (ELISA); settings: Table 2, 4 hours, IL-1β by ELISA
T1 construct: THP-1 cells were purchased from the American Type Culture Collection; host or cells: THP-1 cells, PMA-differentiated
Experimental: THP-1 cells were purchased from the American Type Culture Collection and sub-cultured according to instructions from the supplier. Prior to experiments, cells were cultured in RPMI 1640 containing 10% heat inactivated FBS, penicillin (100 units/ml) and streptomycin (100 μg/ml), and maintained in log phase prior to experimental setup. Prior to the experiment THP-1 were treated with PMA (Phorbol 12-myristate 13-acetate) (10 μg/ml) for 24 hours. The day of the experiment the media was removed and attaching cells were treated with trypsin for 2 minutes, cells were then collected, washed with PBS (phosphate buffer saline), spin down, resuspended in 2% heat inactivated FBS with RPMI at a concentration of 1×10^6 cells/ml, and 100 μl was plated in a 96 well plate. Cells were incubated with compounds for 4 hours. Cell free supernatant was collected and the production of IL-1β was evaluated by ELISA. Compounds were dissolved in dimethyl sulfoxide (DMSO) and added to the culture medium to achieve desired concentration (e.g. 100, 30, 10, 3, 1, 0.3 or 0.1 μM). A vehicle only control was run concurrently with each experiment. Final DMSO concentration was 1%.

TLR7 = target: T2, TLR7 (Homo sapiens, UniProt Q9NYK1); assay: TLR7 EC50 assay; settings: Table 2
T2 sequence (Q9NYK1 27-1049): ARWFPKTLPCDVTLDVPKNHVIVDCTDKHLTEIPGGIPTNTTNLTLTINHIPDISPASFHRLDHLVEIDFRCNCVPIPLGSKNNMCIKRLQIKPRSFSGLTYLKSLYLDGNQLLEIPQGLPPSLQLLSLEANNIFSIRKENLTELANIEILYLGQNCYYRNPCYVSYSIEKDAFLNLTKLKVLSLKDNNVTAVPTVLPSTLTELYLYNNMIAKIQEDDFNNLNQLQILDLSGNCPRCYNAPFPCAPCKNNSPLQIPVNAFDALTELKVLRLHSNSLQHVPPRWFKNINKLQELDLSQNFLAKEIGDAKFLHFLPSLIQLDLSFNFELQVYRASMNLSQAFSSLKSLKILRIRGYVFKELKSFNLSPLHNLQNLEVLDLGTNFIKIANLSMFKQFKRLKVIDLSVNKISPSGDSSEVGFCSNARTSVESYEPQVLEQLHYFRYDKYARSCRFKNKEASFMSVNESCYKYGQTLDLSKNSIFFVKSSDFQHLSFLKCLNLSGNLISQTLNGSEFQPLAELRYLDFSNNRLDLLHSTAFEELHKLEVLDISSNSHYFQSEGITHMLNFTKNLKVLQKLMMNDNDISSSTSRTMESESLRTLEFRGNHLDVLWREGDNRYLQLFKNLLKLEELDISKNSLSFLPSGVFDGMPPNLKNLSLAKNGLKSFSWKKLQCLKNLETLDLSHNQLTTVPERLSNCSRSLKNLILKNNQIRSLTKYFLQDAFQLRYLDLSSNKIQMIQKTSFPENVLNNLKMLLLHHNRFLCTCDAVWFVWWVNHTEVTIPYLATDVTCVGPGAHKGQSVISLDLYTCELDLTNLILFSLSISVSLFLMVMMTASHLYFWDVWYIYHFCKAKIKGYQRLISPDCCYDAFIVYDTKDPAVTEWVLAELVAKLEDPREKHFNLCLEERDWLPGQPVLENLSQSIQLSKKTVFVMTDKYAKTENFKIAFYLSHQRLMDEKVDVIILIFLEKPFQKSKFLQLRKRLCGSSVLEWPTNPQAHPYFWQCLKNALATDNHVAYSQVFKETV

TLR8 = target: T3, TLR8 (Homo sapiens, UniProt Q9NR97); assay: TLR8 EC50 assay; settings: Table 2
T3 sequence (Q9NR97 27-1041): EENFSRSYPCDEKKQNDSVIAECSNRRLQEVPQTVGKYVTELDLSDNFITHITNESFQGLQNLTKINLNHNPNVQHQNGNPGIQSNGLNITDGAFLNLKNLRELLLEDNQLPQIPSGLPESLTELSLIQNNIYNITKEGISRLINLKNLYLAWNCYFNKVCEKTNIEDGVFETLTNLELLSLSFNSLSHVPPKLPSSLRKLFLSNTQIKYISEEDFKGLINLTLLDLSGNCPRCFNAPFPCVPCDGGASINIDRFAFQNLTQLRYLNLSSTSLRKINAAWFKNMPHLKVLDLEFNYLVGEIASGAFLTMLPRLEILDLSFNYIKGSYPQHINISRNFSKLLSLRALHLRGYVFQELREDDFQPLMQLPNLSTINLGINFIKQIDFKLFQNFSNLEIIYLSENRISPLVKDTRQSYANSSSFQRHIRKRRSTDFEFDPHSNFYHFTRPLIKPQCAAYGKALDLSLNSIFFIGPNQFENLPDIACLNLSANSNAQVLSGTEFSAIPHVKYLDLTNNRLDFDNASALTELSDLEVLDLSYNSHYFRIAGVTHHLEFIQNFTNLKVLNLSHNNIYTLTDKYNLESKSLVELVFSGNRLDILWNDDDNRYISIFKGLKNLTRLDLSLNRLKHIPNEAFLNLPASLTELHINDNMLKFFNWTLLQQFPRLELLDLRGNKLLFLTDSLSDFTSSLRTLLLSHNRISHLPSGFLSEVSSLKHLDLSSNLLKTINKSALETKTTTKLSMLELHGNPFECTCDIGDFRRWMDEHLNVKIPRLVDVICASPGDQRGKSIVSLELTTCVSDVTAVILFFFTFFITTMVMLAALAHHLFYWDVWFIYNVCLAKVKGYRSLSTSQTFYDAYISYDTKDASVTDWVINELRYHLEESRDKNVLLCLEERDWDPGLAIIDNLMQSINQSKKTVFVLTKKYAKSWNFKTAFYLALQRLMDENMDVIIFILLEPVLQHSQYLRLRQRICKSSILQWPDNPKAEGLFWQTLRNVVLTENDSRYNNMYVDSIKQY

T1 sequence (Q96P20 whole entry): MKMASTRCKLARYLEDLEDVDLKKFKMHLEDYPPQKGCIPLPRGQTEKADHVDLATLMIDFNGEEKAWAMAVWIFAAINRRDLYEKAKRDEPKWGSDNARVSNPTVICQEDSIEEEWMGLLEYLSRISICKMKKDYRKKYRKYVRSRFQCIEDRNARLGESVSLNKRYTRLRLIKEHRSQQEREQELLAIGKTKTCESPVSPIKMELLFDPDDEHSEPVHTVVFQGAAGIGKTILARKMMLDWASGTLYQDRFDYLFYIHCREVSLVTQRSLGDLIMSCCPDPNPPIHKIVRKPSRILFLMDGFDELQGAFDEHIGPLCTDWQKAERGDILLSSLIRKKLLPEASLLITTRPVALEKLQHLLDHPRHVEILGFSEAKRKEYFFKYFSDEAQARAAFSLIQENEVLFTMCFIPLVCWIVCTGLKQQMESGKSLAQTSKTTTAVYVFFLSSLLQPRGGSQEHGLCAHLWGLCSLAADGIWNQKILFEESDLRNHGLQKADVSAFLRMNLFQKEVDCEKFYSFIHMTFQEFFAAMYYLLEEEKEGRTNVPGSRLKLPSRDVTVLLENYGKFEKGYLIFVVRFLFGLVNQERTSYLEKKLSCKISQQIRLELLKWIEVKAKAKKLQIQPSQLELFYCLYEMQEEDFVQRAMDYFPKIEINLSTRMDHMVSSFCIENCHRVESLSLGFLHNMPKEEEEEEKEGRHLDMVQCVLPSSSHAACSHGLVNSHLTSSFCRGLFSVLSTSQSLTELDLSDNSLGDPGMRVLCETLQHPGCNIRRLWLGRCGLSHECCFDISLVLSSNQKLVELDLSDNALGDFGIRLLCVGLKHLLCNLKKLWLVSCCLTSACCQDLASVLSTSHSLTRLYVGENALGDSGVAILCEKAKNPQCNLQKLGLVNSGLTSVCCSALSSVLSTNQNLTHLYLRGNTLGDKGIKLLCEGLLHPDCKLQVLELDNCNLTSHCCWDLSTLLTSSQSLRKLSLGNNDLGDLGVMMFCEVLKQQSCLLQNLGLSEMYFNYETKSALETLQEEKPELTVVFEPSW

EC50 (hNLRP3) [µM] | EC50 (TLR7) [µM] | EC50 (TLR8) [µM] | Structure (SMILES)
> 100 | > 100 | > 100 | COc1cncc(-c2ccc3c(c2)nc(N)c2nc(CCCO)[nH]c23)c1 [Compound 175, 3-[4-amino-7-(5-methoxypyridin-3-yl)-1H-imidazo[4,5-c]quinolin-2-yl]propan-1-ol]
> 100 | > 100 | > 100 | Cc1cc(-c2ccc3c(c2)nc(N)c2nc(CCCOCc4ccccc4)[nH]c23)n(C)n1 [Compound 150, 7-(2,5-dimethylpyrazol-3-yl)-2-(3-phenylmethoxypropyl)-1H-imidazo[4,5-c]quinolin-4-amine]
1 to 20 | 20 to 100 | 20 to 100 | CCc1ccc2c(c1)nc(N)c1nc(CCCO)[nH]c12 [Compound 162, 3-(4-amino-7-ethyl-1H-imidazo[4,5-c]quinolin-2-yl)propan-1-ol]
1 to 20 | > 100 | > 100 | Nc1nc2cc(-c3cccnc3F)ccc2c2[nH]c(CCCO)nc12 [Compound 158, 3-[4-amino-7-(2-fluoropyridin-3-yl)-1H-imidazo[4,5-c]quinolin-2-yl]propan-1-ol]
20 to 100 | > 100 | > 100 | Nc1nc2ccccc2c2[nH]c(C3COC3)nc12 [Compound 129]
> 100 | > 100 | > 100 | Nc1nc2cc(-n3cnc4ccccc43)ccc2c2[nH]c(CCCO)nc12 [Compound 182, 3-[4-amino-7-(benzimidazol-1-yl)-1H-imidazo[4,5-c]quinolin-2-yl]propan-1-ol]
20 to 100 | > 100 | > 100 | Nc1nc2cc(Oc3ccccc3)ccc2c2[nH]c(CCCO)nc12 [Compound 163, 3-(4-amino-7-phenoxy-1H-imidazo[4,5-c]quinolin-2-yl)propan-1-ol]
1 to 20 | > 100 | > 100 | CC(C)(C)OC(=O)N1CCC(c2nc3c(N)nc4cc(Br)ccc4c3[nH]2)CC1 [Compound 225]
≤ 1 | > 100 | > 100 | Nc1nc2cc(-c3cc[nH]n3)ccc2c2[nH]c(CN3CCCC3)nc12 [Compound 233]
20 to 100 | 20 to 100 | > 100 | Nc1nc2cc(C(F)(F)F)ccc2c2[nH]c(CCCO)nc12 [Compound 127]
1 to 20 |  |  | Nc1nc2cc(-c3cccs3)ccc2c2[nH]c(CCCOCc3ccccc3)nc12 [Compound 243]
20 to 100 | > 100 | > 100 | Nc1nc2cc(-c3cccnc3)ccc2c2[nH]c(CCCOCc3ccccc3)nc12 [Compound 146, 2-(3-phenylmethoxypropyl)-7-pyridin-3-yl-1H-imidazo[4,5-c]quinolin-4-amine]
> 100 | > 100 | > 100 | Nc1nc2cc(-n3ccnc3)ccc2c2[nH]c(CCCO)nc12 [Compound 179, 3-(4-amino-7-imidazol-1-yl-1H-imidazo[4,5-c]quinolin-2-yl)propan-1-ol]
20 to 100 | > 100 | > 100 | Nc1nc2cc(C3CCCCC3)ccc2c2[nH]c(CCCO)nc12 [Compound 174, 3-(4-amino-7-cyclohexyl-1H-imidazo[4,5-c]quinolin-2-yl)propan-1-ol]
1 to 20 | > 100 | > 100 | COc1cccc(-c2ccc3c(c2)nc(N)c2nc(CCCO)[nH]c23)n1 [Compound 246]
≤ 1 | > 100 | > 100 | Nc1nc2cc(-c3ccsc3)ccc2c2[nH]c(CCCO)nc12 [Compound 186, 3-(4-amino-7-thiophen-3-yl-1H-imidazo[4,5-c]quinolin-2-yl)propan-1-ol]
1 to 20 | > 100 | > 100 | CC(C)(C)OC(=O)NC1CCC(c2nc3c(N)nc4cc(Br)ccc4c3[nH]2)CC1 (stereo not shown) [Compound 110]
1 to 20 | > 100 | > 100 | CCN(C(C)=O)C(C)c1nc2c(N)nc3cc(-c4cc[nH]n4)ccc3c2[nH]1 (stereo not shown) [Compound 241]
1 to 20 | > 100 | > 100 | COc1ccc2c(c1)nc(N)c1nc(CCCO)[nH]c12 [Compound 124]
> 100 | > 100 | > 100 | Nc1nc2cc(-c3ccccc3Cl)ccc2c2[nH]c(CCCO)nc12 [Compound 200, 3-[4-amino-7-(2-chlorophenyl)-1H-imidazo[4,5-c]quinolin-2-yl]propan-1-ol]
20 to 100 | > 100 | > 100 | Nc1nc2cc(-c3cncnc3)ccc2c2[nH]c(CCCO)nc12 [Compound 188, 3-(4-amino-7-pyrimidin-5-yl-1H-imidazo[4,5-c]quinolin-2-yl)propan-1-ol]
> 100 | > 100 | 20 to 100 | Nc1nc2cc(-c3ccc(F)cc3)ccc2c2[nH]c(CCCO)nc12 [Compound 212, 3-[4-amino-7-(4-fluorophenyl)-1H-imidazo[4,5-c]quinolin-2-yl]propan-1-ol]
1 to 20 | > 100 | > 100 | CC(=O)c1ccc2c(c1)nc(N)c1nc(CCCO)[nH]c12 [Compound 119]
1 to 20 | > 100 | > 100 | Cc1ncc(-c2ccc3c(c2)nc(N)c2nc(CCCOCc4ccccc4)[nH]c23)cn1 [Compound 154, 7-(2-methylpyrimidin-5-yl)-2-(3-phenylmethoxypropyl)-1H-imidazo[4,5-c]quinolin-4-amine]
> 100 | > 100 |  | Nc1nc2cc(C3CCNCC3)ccc2c2[nH]c(CCCO)nc12 [Compound 198, 3-(4-amino-7-piperidin-4-yl-1H-imidazo[4,5-c]quinolin-2-yl)propan-1-ol]
> 100 | > 100 |  | Nc1nc2cc(C3CCNC3)ccc2c2[nH]c(CCCO)nc12 (stereo not shown) [Compound 197, 3-(4-amino-7-pyrrolidin-3-yl-1H-imidazo[4,5-c]quinolin-2-yl)propan-1-ol]
1 to 20 |  |  | Nc1nc2cc(Br)ccc2c2[nH]c(C3CCC(O)CC3)nc12 (stereo not shown) [Compound 116]
≤ 1 |  |  | Nc1nc2cc(-n3cccn3)ccc2c2[nH]c(CN3CC4COCC4C3)nc12 (stereo not shown) [Compound 109]
